Results: USRE48461E1, “Modulation of androgen receptor expression” (Ionis Pharmaceuticals, Inc., priority 2012, dated 2021)
Oligonucleotides are written 5' to 3', each unit as a sugar letter and its base; * is a phosphorothioate linkage, no mark a phosphodiester; rarer units and linkages stand in square brackets, end groups in braces. Plain capitals give the bases only. k = constrained ethyl (cEt); [5mC] = 5-methylcytosine; d = 2'-deoxy (DNA)

What was measured:
Format in all cases: cell-based, human
KLK3 mRNA = KLK3 mRNA (AR target gene) in C4-2B MR cells
KLK2 mRNA = KLK2 mRNA (AR target gene) in C4-2B MR cells
C4-2B MR cells = test: Proliferation of MDV3100-resistant C4-2B cells (CellTiter 96); details: 6 days
Procedure, shortened: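 Antisense oligonucleotides were added to the culture medium at 0.04, 0.20, 1.00 and 5.00 μM, with a non-targeting oligonucleotide as negative control. After 6 days of treatment, proliferation was read with CellTiter 96 AQueous One. Values are percent inhibition relative to untreated cells.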

LMR20 cells = test: Proliferation of MDV3100-resistant LMR20 cells (MTT; with R1881 or DHT); details: 5 days
Procedure, shortened: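 Cells were held in phenol red-free medium with charcoal-stripped FBS and given antisense oligonucleotides plus 1 nM R1881 or 10 nM DHT from day 1. Proliferation was read by MTT after 5 days of treatment and reported as percent inhibition against non-treated cells.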

## 549372 (kA*kA*kG*dT*dT*dG*dT*dA*dG*dT*dA*dG*dT*k[5mC]*kG*k[5mC]) [compound 549372]
KLK3 mRNA; 0.04 μM
  Percent inhibition of KLK3 mRNA in C4-2B MR cells: 17%
KLK3 mRNA; 0.20 μM
  Percent inhibition of KLK3 mRNA in C4-2B MR cells: 35%
KLK3 mRNA; 1.00 μM
  Percent inhibition of KLK3 mRNA in C4-2B MR cells: 68%
KLK3 mRNA; 5.00 μM
  Percent inhibition of KLK3 mRNA in C4-2B MR cells: 80%
KLK2 mRNA; 0.04 μM
  Percent inhibition of KLK2 mRNA in C4-2B MR cells: 14%
KLK2 mRNA; 0.20 μM
  Percent inhibition of KLK2 mRNA in C4-2B MR cells: 16%
KLK2 mRNA; 1.00 μM
  Percent inhibition of KLK2 mRNA in C4-2B MR cells: 57%
KLK2 mRNA; 5.00 μM
  Percent inhibition of KLK2 mRNA in C4-2B MR cells: 87%
C4-2B MR cells; 0.04 μM
  Percent inhibition of C4-2B MR cell proliferation: 0%
C4-2B MR cells; 0.20 μM
  Percent inhibition of C4-2B MR cell proliferation: 4%
C4-2B MR cells; 1.00 μM
  Percent inhibition of C4-2B MR cell proliferation: 25%
C4-2B MR cells; 5.00 μM
  Percent inhibition of C4-2B MR cell proliferation: 43%

## GTTGATTTAATGGTTG (all phosphorothioate, sugars by position not given here; further chemistry not fully specified) [ISIS 549458]
KLK3 mRNA; C4-2B MR cells, 0.04-5.00 μM
  AR target gene KLK3 mRNA levels: reduced target gene levels in a dose dependent manner more extensively than treatment with ISIS 554221
KLK2 mRNA; C4-2B MR cells, 0.04-5.00 μM
  AR target gene KLK2 mRNA levels: reduced target gene levels in a dose dependent manner more extensively than treatment with ISIS 554221
C4-2B MR cells; 0.04-5.00 μM
  proliferation of C4-2B MR cells: reduced proliferation of the cells in a dose dependent manner more extensively than treatment with ISIS 554221
LMR20 cells; CSS + DHT, ASO 0.04 μM
  Percent inhibition of LMR20 cell proliferation: 0%
LMR20 cells; CSS + DHT, ASO 0.20 μM
  Percent inhibition of LMR20 cell proliferation: 25%
LMR20 cells; CSS + DHT, ASO 1.0 μM
  Percent inhibition of LMR20 cell proliferation: 60%
LMR20 cells; CSS + DHT, ASO 5.0 μM
  Percent inhibition of LMR20 cell proliferation: 70%
LMR20 cells; CSS + R1881, ASO 0.04 μM
  Percent inhibition of LMR20 cell proliferation: 0%
LMR20 cells; CSS + R1881, ASO 0.20 μM
  Percent inhibition of LMR20 cell proliferation: 22%
LMR20 cells; CSS + R1881, ASO 1.0 μM
  Percent inhibition of LMR20 cell proliferation: 59%
LMR20 cells; CSS + R1881, ASO 5.0 μM
  Percent inhibition of LMR20 cell proliferation: 74%
LMR20 cells; CSS, ASO 0.04 μM
  Percent inhibition of LMR20 cell proliferation: 0%
LMR20 cells; CSS, ASO 0.20 μM
  Percent inhibition of LMR20 cell proliferation: 0%
LMR20 cells; CSS, ASO 1.0 μM
  Percent inhibition of LMR20 cell proliferation: 0%
LMR20 cells; CSS, ASO 5.0 μM
  Percent inhibition of LMR20 cell proliferation: 5%
LMR20 cells; in the presence of R1881 or DHT, 0.04-5.0 μM
  LMR20 cell proliferation: significantly inhibited MDV3100-resistant prostate cancer cell proliferation in a dose dependent manner more extensively than ISIS 554221
